According to patent US11377467B2, “Crystalline form of gemcitabine” (NuCana plc, priority 2015, dated 2022):

Assays:
[1] = stability stress testing of crystalline form; type: physicochemical; conditions: ambient light, 40° C. and 75% relative humidity, 7 days
Text: Form VIII appeared physically stable upon stability stress testing.

[2] = test system: advanced solid malignancies; experiment: ProGem1 phase I study: clinical efficacy; type: in vivo, human; conditions: patients with advanced progressive cancers who have exhausted all standard therapeutic options, many resistant or refractory to prior nucleoside analogue therapy
Text: (§1) ProGem1 was a first-time-in-human (FTIH), phase I, open label, two stage study to investigate the safety, tolerability, clinical efficacy, pharmacokinetics (PK) and pharmacodynamics (PD) of NUC-1031 given in two parallel dosing schedules in subjects with advanced solid malignancies (EudraCT Number: 2011-005232-26). Subjects had the following tumour types at study entry: colorectal cancer (7 subjects), unknown primary (3), ovarian cancer (12), breast cancer (4), pancreatic cancer (9), cholangiocarcinoma (7), endometrial cancer (3), cervical cancer (2), lung cancer (7), mesothelioma (3), oesophageal cancer (3), cancer of the fallopian tube (1), trophoblast (1), renal cancer (1), gastric cancer (1), anal cancer (1), cancer of the thymus (1) and osteosarcoma (1).

[3] = ProGem1 phase I study: pharmacokinetics (intracellular dFdCTP, dFdU); type: in vivo, human; conditions: relative to levels normally associated with gemcitabine
Text: as §1

change in crystalline form upon storage [1] | decrease in purity upon storage [1] | SMILES | anti-tumour activity [2] | levels of the potentially toxic metabolite 2′,2′-difluoro-2′-deoxyuridine (dFdU) released, relative to gemcitabine [3]
No change in crystalline form | no decrease in purity | C[C@H](N[P@](=O)(OC[C@H]1O[C@@H](n2ccc(N)nc2=O)C(F)(F)C1O)Oc1ccccc1)C(=O)OCc1ccccc1 (stereo partly shown) [Form VIII] | – | –
– | – | C[C@H](NP(=O)(OC[C@H]1O[C@@H](n2ccc(N)nc2=O)C(F)(F)C1O)Oc1ccccc1)C(=O)OCc1ccccc1 (stereo partly shown) [NUC-1031] | anti-tumour activity | less than half
